# Tested on: Mitochondria-located protein genes
# Assay: DNA chip mRNA expression in yeast, mitochondria-located protein genes (Table 2)
# Assay type: cell-based, Saccharomyces cerevisiae S288C
# Conditions: cells incubated two hours with the chemical substance
# Method in brief: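 Values are treated/untreated fluorescence ratios from a whole-genome yeast DNA chip hybridized over 12 hours at 65° C with Cy3- or Cy5-labelled cDNA from poly(A) mRNA. Log-phase S288C yeast in YPD at 25° C had received a single toxic chemical for two hours, dosed to slow growth without killing.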
smiles,measurement,setting,value
"[Cl][Cd][Cl] [(2), CdCl2]",The level of expressed mRNA in the presence of chemical substance/The level of expressed mRNA in the absence of chemical substance,yeast gene YJR121W,1.1
same,The level of expressed mRNA in the presence of chemical substance/The level of expressed mRNA in the absence of chemical substance,yeast gene YKL003C,0.7
same,The level of expressed mRNA in the presence of chemical substance/The level of expressed mRNA in the absence of chemical substance,yeast gene YKL016C,1.3
same,The level of expressed mRNA in the presence of chemical substance/The level of expressed mRNA in the absence of chemical substance,yeast gene YKL141W,1.1
same,The level of expressed mRNA in the presence of chemical substance/The level of expressed mRNA in the absence of chemical substance,yeast gene YKL142W,2.7
same,The level of expressed mRNA in the presence of chemical substance/The level of expressed mRNA in the absence of chemical substance,yeast gene YKL148C,0.8
same,The level of expressed mRNA in the presence of chemical substance/The level of expressed mRNA in the absence of chemical substance,yeast gene YKL170W,0.8
same,The level of expressed mRNA in the presence of chemical substance/The level of expressed mRNA in the absence of chemical substance,yeast gene YKL194C,0.7
same,The level of expressed mRNA in the presence of chemical substance/The level of expressed mRNA in the absence of chemical substance,yeast gene YKR066C,1.4
same,The level of expressed mRNA in the presence of chemical substance/The level of expressed mRNA in the absence of chemical substance,yeast gene YLL041C,0.5
same,The level of expressed mRNA in the presence of chemical substance/The level of expressed mRNA in the absence of chemical substance,yeast gene YLR038C,1.1
same,The level of expressed mRNA in the presence of chemical substance/The level of expressed mRNA in the absence of chemical substance,yeast gene YLR259C,1.0
same,The level of expressed mRNA in the presence of chemical substance/The level of expressed mRNA in the absence of chemical substance,yeast gene YLR295C,1.1
same,The level of expressed mRNA in the presence of chemical substance/The level of expressed mRNA in the absence of chemical substance,yeast gene YLR304C,0.6
same,The level of expressed mRNA in the presence of chemical substance/The level of expressed mRNA in the absence of chemical substance,yeast gene YLR348C,4.5
same,The level of expressed mRNA in the presence of chemical substance/The level of expressed mRNA in the absence of chemical substance,yeast gene YLR395C,1.3
same,The level of expressed mRNA in the presence of chemical substance/The level of expressed mRNA in the absence of chemical substance,yeast gene YML054C,1.8
same,The level of expressed mRNA in the presence of chemical substance/The level of expressed mRNA in the absence of chemical substance,yeast gene YML120C,1.2
same,The level of expressed mRNA in the presence of chemical substance/The level of expressed mRNA in the absence of chemical substance,yeast gene YML129C,0.9
same,The level of expressed mRNA in the presence of chemical substance/The level of expressed mRNA in the absence of chemical substance,yeast gene YMR023C,1.3
same,The level of expressed mRNA in the presence of chemical substance/The level of expressed mRNA in the absence of chemical substance,yeast gene YMR035W,1.7
same,The level of expressed mRNA in the presence of chemical substance/The level of expressed mRNA in the absence of chemical substance,yeast gene YMR083W,1.7
same,The level of expressed mRNA in the presence of chemical substance/The level of expressed mRNA in the absence of chemical substance,yeast gene YMR089C,1.1
same,The level of expressed mRNA in the presence of chemical substance/The level of expressed mRNA in the absence of chemical substance,yeast gene YMR152W,1.1
same,The level of expressed mRNA in the presence of chemical substance/The level of expressed mRNA in the absence of chemical substance,yeast gene YMR203W,0.7
same,The level of expressed mRNA in the presence of chemical substance/The level of expressed mRNA in the absence of chemical substance,yeast gene YMR267W,1.8
same,The level of expressed mRNA in the presence of chemical substance/The level of expressed mRNA in the absence of chemical substance,yeast gene YNL055C,1.8
same,The level of expressed mRNA in the presence of chemical substance/The level of expressed mRNA in the absence of chemical substance,yeast gene YNL071W,0.9
same,The level of expressed mRNA in the presence of chemical substance/The level of expressed mRNA in the absence of chemical substance,yeast gene YNL073W,1.4
same,The level of expressed mRNA in the presence of chemical substance/The level of expressed mRNA in the absence of chemical substance,yeast gene YNL104C,1.3
same,The level of expressed mRNA in the presence of chemical substance/The level of expressed mRNA in the absence of chemical substance,yeast gene YNL256W,1.6
same,The level of expressed mRNA in the presence of chemical substance/The level of expressed mRNA in the absence of chemical substance,yeast gene YOL096C,1.0
same,The level of expressed mRNA in the presence of chemical substance/The level of expressed mRNA in the absence of chemical substance,yeast gene YOR020C,2.1
same,The level of expressed mRNA in the presence of chemical substance/The level of expressed mRNA in the absence of chemical substance,yeast gene YOR037W,1.5
same,The level of expressed mRNA in the presence of chemical substance/The level of expressed mRNA in the absence of chemical substance,yeast gene YOR100C,1.4
same,The level of expressed mRNA in the presence of chemical substance/The level of expressed mRNA in the absence of chemical substance,yeast gene YOR130C,1.7
same,The level of expressed mRNA in the presence of chemical substance/The level of expressed mRNA in the absence of chemical substance,yeast gene YOR142W,1.2
same,The level of expressed mRNA in the presence of chemical substance/The level of expressed mRNA in the absence of chemical substance,yeast gene YOR150W,1.2
same,The level of expressed mRNA in the presence of chemical substance/The level of expressed mRNA in the absence of chemical substance,yeast gene YOR176W,2.6
same,The level of expressed mRNA in the presence of chemical substance/The level of expressed mRNA in the absence of chemical substance,yeast gene YOR187W,0.5
same,The level of expressed mRNA in the presence of chemical substance/The level of expressed mRNA in the absence of chemical substance,yeast gene YOR316C,2.5
same,The level of expressed mRNA in the presence of chemical substance/The level of expressed mRNA in the absence of chemical substance,yeast gene YPL040C,1.0
same,The level of expressed mRNA in the presence of chemical substance/The level of expressed mRNA in the absence of chemical substance,yeast gene YPL134C,1.0
same,The level of expressed mRNA in the presence of chemical substance/The level of expressed mRNA in the absence of chemical substance,yeast gene YPL135W,1.2
same,The level of expressed mRNA in the presence of chemical substance/The level of expressed mRNA in the absence of chemical substance,yeast gene YPL215W,1.9
same,The level of expressed mRNA in the presence of chemical substance/The level of expressed mRNA in the absence of chemical substance,yeast gene YPL262W,1.7
same,The level of expressed mRNA in the presence of chemical substance/The level of expressed mRNA in the absence of chemical substance,yeast gene YPR024W,1.0
same,The level of expressed mRNA in the presence of chemical substance/The level of expressed mRNA in the absence of chemical substance,yeast gene YPR037C,2.3
same,The level of expressed mRNA in the presence of chemical substance/The level of expressed mRNA in the absence of chemical substance,yeast gene YPR047W,1.0
same,The level of expressed mRNA in the presence of chemical substance/The level of expressed mRNA in the absence of chemical substance,yeast gene YPR134W,1.1
